# Reference: ChEMBL document CHEMBL1147904, “Probing length effects and mechanism of cell penetrating agents mounted on a polyproline helix scaffold” (Bioorg Med Chem Lett, 2007)
# Non-standard residues stand in square brackets, D forms with d. Residues, ends and D or L forms follow the SMILES beside them. *: point of attachment. X1 = O=C(O)c1cc(C(=O)*)ccc1-c1c2ccc(=O)cc-2oc2cc(O)ccc12; Propyl(3-guanidino) = N=C(N)NCCC*; Hyp = O=C(O)[C@@H]1C[C@@H](O)CN1; Isobutyl = CC(C)C*
# What was measured:
# [1] = tested on: MCF7; assay: Cellular uptake in MCF7 cells assessed as mean fluorescence at 1 uM after 6 hrs; type: ADME, cell-based; conditions: human, mcf7, 6 h
# [2] = tested on: MCF7; assay: Cellular uptake in MCF7 cells assessed as mean fluorescence at 5 uM after 6 hrs; type: ADME, cell-based; conditions: human, mcf7, 6 h
# [3] = tested on: MCF7; assay: Cellular uptake in MCF7 cells assessed as mean fluorescence at 10 uM after 6 hrs; type: ADME, cell-based; conditions: human, mcf7, 6 h
# [4] = tested on: MCF7; assay: Cellular uptake in MCF7 cells assessed as mean fluorescence at 15 uM after 6 hrs; type: ADME, cell-based; conditions: human, mcf7, 6 h
# [5] = tested on: MCF7; assay: Decrease in cellular uptake in MCF7 cells at 15 uM at 4 degC after 6 hrs; type: ADME, cell-based; parameters: scale not given: the % may be the effect or the level left; conditions: human, mcf7, 6 h
# [6] = tested on: MCF7; assay: Decrease in cellular uptake in MCF7 cells at 15 uM at 37 degC after 6 hrs; type: ADME, cell-based; parameters: scale not given: the % may be the effect or the level left; conditions: human, mcf7, 6 h
# [7] = tested on: MCF7; assay: Decrease in cellular uptake in MCF7 cells at 15 uM in presence of sodium azideafter 6 hrs by flow cytometry; type: ADME, cell-based; parameters: scale not given: the % may be the effect or the level left; conditions: human, mcf7, 6 h
# [8] = Cytotoxicity against MCF7 cells assessed as cell viability at 15 uM after 24 hrs by flow cytometry; type: cell-based; conditions: human, read-out: Activity
SMILES,Activity [1],Activity [2],Activity [3],Activity [4],Activity [5],Activity [6],Activity [7],"viability at 24 h, 15 µM [8]"
CC(C)CO[C@@H]1C[C@@H](C(=O)N2C[C@H](OCCCNC(=N)N)C[C@H]2C(=O)N2C[C@H](OCCCNC(=N)N)C[C@H]2C(=O)N2C[C@H](OCC(C)C)C[C@H]2C(=O)N2C[C@H](OCCCNC(=N)N)C[C@H]2C(=O)N2C[C@H](OCCCNC(=N)N)C[C@H]2C(=O)N2C[C@H](OCC(C)C)C[C@H]2C(=O)N2C[C@H](OCCCNC(=N)N)C[C@H]2C(=O)N2C[C@H](OCCCNC(=N)N)C[C@H]2C(=O)N2C[C@H](OCC(C)C)C[C@H]2C(N)=O)N(C(=O)CNC(=O)c2ccc(-c3c4ccc(=O)cc-4oc4cc(O)ccc34)c(C(=O)O)c2)C1 (X1-G[Hyp](Isobutyl)[Hyp](Propyl(3-guanidino))[Hyp](Propyl(3-guanidino))[Hyp](Isobutyl)[Hyp](Propyl(3-guanidino))[Hyp](Propyl(3-guanidino))[Hyp](Isobutyl)[Hyp](Propyl(3-guanidino))[Hyp](Propyl(3-guanidino))[Hyp](Isobutyl)-NH2),2 a.u.,7 a.u.,15 a.u.,63 a.u.,82%,89%,Not Active,80%
CC(C)CO[C@@H]1C[C@@H](C(=O)N2C[C@H](OCCCNC(=N)N)C[C@H]2C(=O)N2C[C@H](OCCCNC(=N)N)C[C@H]2C(=O)N2C[C@H](OCC(C)C)C[C@H]2C(=O)N2C[C@H](OCCCNC(=N)N)C[C@H]2C(=O)N2C[C@H](OCCCNC(=N)N)C[C@H]2C(=O)N2C[C@H](OCC(C)C)C[C@H]2C(=O)N2C[C@H](OCCCNC(=N)N)C[C@H]2C(=O)N2C[C@H](OCCCNC(=N)N)C[C@H]2C(=O)N2C[C@H](OCC(C)C)C[C@H]2C(=O)N2C[C@H](OCCCNC(=N)N)C[C@H]2C(=O)N2C[C@H](OCCCNC(=N)N)C[C@H]2C(=O)N2C[C@H](OCC(C)C)C[C@H]2C(N)=O)N(C(=O)CNC(=O)c2ccc(-c3c4ccc(=O)cc-4oc4cc(O)ccc34)c(C(=O)O)c2)C1 (X1-G[Hyp](Isobutyl)[Hyp](Propyl(3-guanidino))[Hyp](Propyl(3-guanidino))[Hyp](Isobutyl)[Hyp](Propyl(3-guanidino))[Hyp](Propyl(3-guanidino))[Hyp](Isobutyl)[Hyp](Propyl(3-guanidino))[Hyp](Propyl(3-guanidino))[Hyp](Isobutyl)[Hyp](Propyl(3-guanidino))[Hyp](Propyl(3-guanidino))[Hyp](Isobutyl)-NH2),4 a.u.,30 a.u.,177 a.u.,420 a.u.,82%,89%,19%,80%
